From article PMC9465256, “Discovering monoacylglycerol lipase inhibitors by a combination of fluorogenic substrate assay and activity-based protein profiling” (Frontiers in Pharmacology, 2022)

Key:
Type in all cases: biochemical
endogenous mouse MAGL = biological target: T1, endogenous mouse MAGL (Mus musculus, UniProt O35678); test: Competitive ABPP, mouse brain membrane proteome: MAGL band; conditions: FP-TAMRA 250 nM
T1 construct: on endogenous MAGL, we applied an ABPP assay with mouse brain membrane proteome; from tissue; host or cells: mouse brain membrane fraction
T1 sequence (O35678 1-303): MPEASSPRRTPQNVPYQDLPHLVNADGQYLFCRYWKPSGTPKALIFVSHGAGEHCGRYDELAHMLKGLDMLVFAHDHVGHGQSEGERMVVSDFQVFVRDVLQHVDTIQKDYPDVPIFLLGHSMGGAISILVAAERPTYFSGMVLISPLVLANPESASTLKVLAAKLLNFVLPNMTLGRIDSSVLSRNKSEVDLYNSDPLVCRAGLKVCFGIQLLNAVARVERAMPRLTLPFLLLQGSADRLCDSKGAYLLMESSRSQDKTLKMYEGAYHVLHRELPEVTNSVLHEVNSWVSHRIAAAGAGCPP
Method: (§1) Mouse brains were isolated according to guidelines approved by the ethical committee of Western China Hospital, Sichuan University (No. 2021765A). Mouse brains were dounce homogenized lysis buffer (20 mM HEPES, 2 mM DTT, 1 mM MgCl2, 25 U/mL benzonase) and incubated on ice for 15 min, followed by low-speed spin (2,500 g, 3 min, 4 C) to remove debris. The supernatant was subjected to ultracentrifugation (100,000 g, 45 min, 4°C) to generate the cytosolic fraction in the supernatant, as well as the membrane fraction as a pellet. After removal of the soluble supernatant, the pellet was resuspended in storage buffer (20 mM HEPES, 2 mM DTT) by pipetting. Total protein concentrations in membrane and soluble fractions were determined using a Qubit protein assay (Invitrogen). The obtained samples were stored at −80°C until further use.
The competitive ABPP selectivity assay was performed according to the previously reported protocol. Briefly, mouse brain membrane proteome (2 mg/ml, 20 µl) was preincubated for 30 min with 0.5 µl of DMSO (vehicle) or inhibitor (100 μM, finial concentration). Subsequently, the proteome-inhibitor complex was treated with the activity-based probe FP-TAMRA (250 nM, final concentration) for 20 min. […] The gels were then scanned and analyzed using a ChemiDoc MP system (Cy3 settings, BioRad). All the samples were measured and duplicated.

[1] = test system: serine hydrolases labeled by FP-TAMRA in mouse brain membrane proteome; test: Competitive ABPP selectivity assay, mouse brain membrane proteome; conditions: 100 µM, FP-TAMRA 250 nM
Method: as §1, with “Mouse” for “Mouse brains were isolated according to guidelines approved by the ethical committee of Western China Hospital, Sichuan University (No. 2021765A). Mouse”
The competitive ABPP selectivity assay was performed according to the previously reported protocol. Briefly, mouse brain membrane proteome (2 mg/ml, 20 µl) was preincubated for 30 min with 0.5 µl of DMSO (vehicle) or inhibitor (100 μM, finial concentration). […] The reactions were then quenched by 10 µl sample buffer (×4). The obtained samples were directly loaded and resolved on SDS-PAGE gel (10% acrylamide). The gels were then scanned and analyzed using a ChemiDoc MP system (Cy3 settings, BioRad). All the samples were measured and duplicated.

[2] = test system: endogenous MAGL in cancer cells; test: Competitive ABPP in cancer cell lysates: MAGL band; conditions: 100 µM, FP-TAMRA 500 nM
Method: To identify the potential off-targets of the compounds with anti-cancer activities, ABPP was applied. Cancer cells were seeded in the dishes and were washed with PBS, scraped, centrifugated (3,000 × g, 3 min) and pellets snap frozen in liquid in nitrogen. For ABPP experiments, the cell pellets were lysed by probe sonication (3 × 10 bursts) in PBS, followed by the determination of protein concentration of the intact cell lysate by Qubit assay. […] The reactions were then quenched by 10 µl sample buffer (×4). The obtained samples were directly loaded and resolved on SDS-PAGE gel (10% acrylamide). The gel-based ABPP results were then scanned and analyzed using a ChemiDoc MP system (Cy3 settings, BioRad).

## C[C@H]1COC2=C1C(=O)C(=O)c1c2ccc2c1CCCC2(C)C [compound 23, Cryptotanshinone]
Endogenous mouse MAGL
  inhibition at 100 µM: 50 to 60%
[1]
  selectivity profile over serine hydrolases: broad-spectrum inhibitors that cross-reacted with multiple serine hydrolases
[2]; 30 min, A549 cell lysate
  labeling of endogenous MAGL, A549: completely reduced the labeling
[2]; 30 min, B16-F10 cell lysate
  labeling of endogenous MAGL, B16-F10: completely reduced the labeling
[2]; 30 min, H1975 cell lysate
  labeling of endogenous MAGL, H1975: completely reduced the labeling
[2]; 30 min, HCC827 cell lysate
  labeling of endogenous MAGL, HCC827: completely reduced the labeling
[2]; 30 min, HT-29 cell lysate
  labeling of endogenous MAGL, HT-29: completely reduced the labeling
[2]; 30 min, Hela cell lysate
  labeling of endogenous MAGL, Hela: completely reduced the labeling
[2]; 30 min, OVCAR-3 cell lysate
  labeling of endogenous MAGL, OVCAR-3: completely reduced the labeling
[2]; cancer cell lysates
  inhibition of endogenous MAGL in the tested cancer cell lines: nearly complete inhibition
